In patent US20070179060A1, “6-(Poly-substituted aryl)-4-aminopicolinates and their use as herbicides” (priority 2006, published 2007):

Tests used:
[1] = tested on: Triticum aestivum (spring wheat); assay: Postemergence herbicidal safening in cereal crops; assay type: in vivo; details: Table 5, applied alone, after 3 weeks
Method: (§1) Seeds of the desired test plant species were planted in Sun Gro MetroMix® 306 planting mixture, which typically has a pH of 6.0 to 6.8 and an organic matter content of about 30 percent, in plastic pots with a surface area of 103.2 square centimeters. When required to ensure good germination and healthy plants, a fungicide treatment and/or other chemical or physical treatment was applied. The plants were grown for 7-36 days in a greenhouse with an approximate 14 hour photoperiod which was maintained at about 18° C. during the day and 17° C. during the night. Nutrients and water were added on a regular basis and supplemental lighting was provided with overhead metal halide 1000-Watt lamps as necessary. The plants were employed for testing when they reached the second or third true leaf stage. Treatments consisted of compound 42 and cloquintocet-mexyl alone and in combination. Weighed amounts were placed in 25 mL glass vials and dissolved in a volume of 97:3 v/v acetone/DMSO to obtain 9 mg ai/mL stock solutions. […] A dilution solution was prepared by mixing 1 volume of 97:3 v/v acetone/DMSO and 2 volumes of an aqueous mixture containing acetone, water, isopropyl alcohol, DMSO, Agri-dex crop oil concentrate, and Triton® X-77 surfactant in a 64.7:26.0:6.7:2.0:0.7:0.01 v/v ratio. Compound requirements are based upon a 12 mL application volume at a rate of 187 L/ha. […] Formulated compounds were applied to the plant material with an overhead Mandel track sprayer equipped with a […] nozzles calibrated to deliver 187 L/ha over an application area of 0.503 square meters at a spray height of 18 inches (43 cm) above average plant canopy height. Control plants were sprayed in the same manner with the solvent blank. The treated plants and control plants were placed in a greenhouse as described above and watered by sub-irrigation to prevent wash-off of the test compounds. After 3 weeks the condition of the test plants as compared with that of the untreated plants was determined visually and scored on a scale of 0 to 100 percent where 0 corresponds to no injury and 100 corresponds to complete kill. Colby's equation was used to determine the herbicidal effects expected from the mixtures (Colby, S. R. 1967. Calculation of the synergistic and antagonistic response of herbicide combinations. Weeds 15:20-22.). The following equation was used to calculate the expected activity of mixtures containing two active ingredients, A and B: Expected=A+B-(A×B/100) • A=observed efficacy of active ingredient A at the same concentration as used in the mixture. • B=observed efficacy of active ingredient B at the same concentration as used in the mixture.

Papaver rhoeas = assay: Postemergence herbicidal safening in cereal crops; assay type: in vivo; details: Table 5, applied alone, after 3 weeks
Method: as §1

[2] = tested on: Hordeum vulgare (winter barley); assay: Postemergence herbicidal safening in cereal crops; assay type: in vivo; details: Table 5, applied alone, after 3 weeks
Method: as §1

Galium aparine = assay: Postemergence herbicidal safening in cereal crops; assay type: in vivo; details: Table 5, applied alone, after 3 weeks
Method: as §1

[3] = tested on: lambsquarter (Chenopodium album); assay: Postemergence herbicidal activity; assay type: in vivo; details: Chenopodium album, post-emergence, 336 h, post-emergent, 140 g ai/ha, after 14 days; read-out: % Control CHEAL
Procedure, shortened: (§2)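 Compounds were applied postemergence by track sprayer delivering 187 L/ha, using a mixed organic/aqueous carrier containing crop oil concentrate and surfactant; solvent-blank sprays served as controls. Test plants were at the first to second true leaf stage after 7-21 days' greenhouse growth, were sub-irrigated after treatment, and were evaluated by probit analysis.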

[4] = tested on: redroot pigweed (Amaranthus retroflexus); assay: Postemergence herbicidal activity; assay type: in vivo; details: Amaranthus retroflexus, post-emergence, 336 h, post-emergent, 140 g ai/ha, after 14 days; read-out: % Control AMARE
Procedure, shortened: as §2

[5] = tested on: velvetleaf (Abutilon theophrasti); assay: Postemergence herbicidal activity; assay type: in vivo; details: Abutilon theophrasti, post-emergence, 336 h, post-emergent, 140 g ai/ha, after 14 days; read-out: % Control ABUTH
Procedure, shortened: as §2

[6] = tested on: Triticum aestivum (spring wheat); assay: Postemergence herbicidal activity of mixtures in cereal crops; assay type: in vivo; details: Table 6, applied alone, 35 g ai/ha, after 3 weeks
Method: (§3) Seeds of the desired test plant species were planted and reared as described in “Evaluation of Postemergence Herbicidal Safening in Cereal Crops” (section 37).
(§4) Treatments consisted of compound (as listed in Tables 6 and 7), fluroxypyr methylheptyl ester (MHE), and clopyralid monoethanolamine (MEA) salt alone and in combination. Weighed amounts were placed in 25 mL glass vials and dissolved in a volume of 97:3 v/v acetone/DMSO to obtain 4.5 mg ai/mL stock solutions. […] The concentrated stock solutions were diluted to 1.5 mg ai/mL with the addition of 2 volumes of an aqueous mixture containing acetone, water, isopropyl alcohol, DMSO, Agri-dex crop oil concentrate, and Triton® X-77 surfactant in a 64.7:26.0:6.7:2.0:0.7:0.01 v/v ratio. A dilution solution was prepared by mixing 1 volume of 97:3 v/v acetone/DMSO and 2 volumes of an aqueous mixture containing acetone, water, isopropyl alcohol, DMSO, Agri-dex crop oil concentrate, and Triton® X-77 surfactant in a 64.7:26.0:6.7:2.0:0.7:0.01 v/v ratio. Compound requirements are based upon a 12 mL application volume at a rate of 187 L/ha. Spray solutions of fluroxypyr MHE, clopyralid MEA, and experimental compound mixtures were prepared by adding the stock solutions to the appropriate amount of dilution solution to form 12 mL spray solution with active ingredients in two- and three-way combinations. Formulated compounds were applied to the plant material with an overhead Mandel track sprayer equipped with a 8002E nozzles calibrated to deliver 187 L/ha over an application area of 0.503 square meters at a spray height of 18 inches (43 cm) above average plant canope. Control plants were sprayed in the same manner with the solvent blank.
(§5) The treated plants and control plants were placed in a greenhouse as described above and watered by sub-irrigation to prevent wash-off of the test compounds. After 3 weeks the condition of the test plants as compared with that of the control plants was determined visually and scored on a scale of 0 to 100 percent where 0 corresponds to no injury and 100 corresponds to complete kill.
(§6) Colby's equation was used to determine the herbicidal effects expected from the mixtures (Colby, S. R. 1967. Calculation of the synergistic and antagonistic response of herbicide combinations. Weeds 15:20-22.).
(§7) The following equation was used to calculate the expected activity of mixtures containing two active ingredients, A and B: Expected=A+B−(A×B/100) • A=observed efficacy of active ingredient A at the same concentration as used in the mixture. • B=observed efficacy of active ingredient B at the same concentration as used in the mixture.
(§8) The following equation was used to calculate the expected activity of mixtures containing three active ingredients, A, B, and C: Expected=A+B+C−(A×B+B×C+A×C)/100+(A×B×C)/10000 • A=observed efficacy of active ingredient A at the same concentration as used in the mixture. • B=observed efficacy of active ingredient B at the same concentration as used in the mixture. • C=observed efficacy of active ingredient C at the same concentration as used in the mixture.

Matricaria chamomilla = assay: as above; assay type: in vivo; details: Table 6, applied alone, 35 g ai/ha, after 3 weeks
Method: as §3, §4, §5, §6, §7, §8

[7] = tested on: Hordeum vulgare (winter barley); assay: as above; assay type: in vivo; details: Table 6, applied alone, 35 g ai/ha, after 3 weeks
Method: as §3, §4, §5, §6, §7, §8

[8] = tested on: lambsquarter (Chenopodium album); assay: Preemergence herbicidal activity; assay type: in vivo; details: Chenopodium album, pre-emergence, 480 h; pre-emergent, 140 g ai/ha, after 20-22 days; read-out: % Control CHEAL
Procedure, shortened: (§9)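 Seeds sown in 70:30 loam (pH about 8.1, about 1.5% organic matter) and sand mix, then sprayed preemergence at 187 L/ha with a track sprayer; controls received solvent blank. Pots kept in greenhouse, about 15 h photoperiod, about 23-29° C. day and 22-28° C. night, top-irrigated.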

[9] = tested on: redroot pigweed (Amaranthus retroflexus); assay: Preemergence herbicidal activity; assay type: in vivo; details: Amaranthus retroflexus, pre-emergence, 480 h; pre-emergent, 140 g ai/ha, after 20-22 days; read-out: % Control AMARE
Procedure, shortened: as §9

[10] = tested on: velvetleaf (Abutilon theophrasti); assay: Preemergence herbicidal activity; assay type: in vivo; details: Abutilon theophrasti, pre-emergence, 480 h; pre-emergent, 140 g ai/ha, after 20-22 days; read-out: % Control ABUTH
Procedure, shortened: as §9

Row | Compound | pest or weed control at 140 g/ha [3] [%] | pest or weed control at 140 g/ha [4] [%] | pest or weed control at 140 g/ha [5] [%] | melting point [°C] | % Control TRZAS Ob [6] [%] | % Control MATCH Ob (Matricaria chamomilla) [%] | % Control HORVW Ob [7] [%] | pest or weed control at 140 g/ha [8] [%] | pest or weed control at 140 g/ha [9] [%] | pest or weed control at 140 g/ha [10] [%] | other results
1 | CCCCCC(C)OC(=O)COc1ccc(Cl)c2cccnc12 (stereo not drawn) [Cloquintocetmexyl, cloquintocet-mexyl] | – | – | – | – | – | – | – | – | – | – | % Control TRZAS Ob ([1]; 35 g ai/ha): 0%; % Control TRZAS Ob ([1]; 70 g ai/ha): 0%; % Control TRZAS Ob ([1]; 140 g ai/ha): 0%; % Control TRZAS Ob ([1]; 280 g ai/ha): 0%; % Control PAPRH Ob (Papaver rhoeas; 35 g ai/ha): 0%; % Control PAPRH Ob (Papaver rhoeas; 70 g ai/ha): 0%; % Control PAPRH Ob (Papaver rhoeas; 140 g ai/ha): 0%; % Control PAPRH Ob (Papaver rhoeas; 280 g ai/ha): 0%; % Control HORVW Ob ([2]; 35 g ai/ha): 0%; % Control HORVW Ob ([2]; 70 g ai/ha): 0%; % Control HORVW Ob ([2]; 140 g ai/ha): 0%; % Control HORVW Ob ([2]; 280 g ai/ha): 0%; % Control GALAP Ob (Galium aparine; 35 g ai/ha): 0%; % Control GALAP Ob (Galium aparine; 70 g ai/ha): 0%; % Control GALAP Ob (Galium aparine; 140 g ai/ha): 0%; % Control GALAP Ob (Galium aparine; 280 g ai/ha): 0%
2 | COC(=O)c1nc(-c2ccc(F)c(OC)c2Cl)cc(N)c1Cl [Compound 74, 4-Amino-3-chloro-6-(2-chloro-4-fluoro-3-methoxyphenyl)pyridine-2-carboxylic acid, methyl ester] | 100 | 90 | 100 | 145 to 146 | 25 | 10 | 0 | 95 | 95 | 100 | –
3 | COc1c(C)cc(F)c(-c2cc(N)c(Cl)c(C(=O)O)n2)c1F [Compound 93, 4-Amino-3-chloro-6-(2,6-difluoro-3-methoxy-4-methylphenyl)pyridine-2-carboxylic acid] | 100 | 100 | 100 | 167 to 168 | 15 | 45 | 10 | 100 | 100 | 100 | –
